Reference: PubChem BioAssay (NCI)
“And” between values parts separate entries of the source, which are not always exact repeats. Identical values can stand only once.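 Cells were grown in 96-well plates and exposed to each compound for 48 hours at five concentrations; endpoints were interpolated linearly between bracketing concentrations, or set to the highest concentration if not reached. GI50 marks 50% less growth. Definition used: TGI = concentration required for complete inhibition of growth.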

What was measured:
Experiment in all cases: NCI anticancer screen, dose series, 48 h
[1] = system: BT-549 breast
[2] = system: HCC-2998 colon
[3] = system: HCT-15 colon
[4] = system: HOP-62 NSCLC
[5] = system: HOP-92 NSCLC
[6] = system: HS 578T breast
[7] = system: HT29 colon
[8] = system: RXF 393 renal
[9] = system: UACC-257 melanoma
[10] = system: EKVX NSCLC

SMILES | GI50 [1] | TGI [1] | GI50 [2] | TGI [2] | GI50 [3] | TGI [3] | GI50 [4] | TGI [4] | GI50 [5] | TGI [5] | GI50 [6] | TGI [6] | GI50 [7] | TGI [7] | GI50 [8] | TGI [8] | GI50 [9] | TGI [9] | TGI [10] | GI50 [10]
CC(C)N(C[C@H]1O[C@@H](n2cnc3c(N)ncnc32)[C@H](O)[C@@H]1O)C1CC(CCc2nc3ccc(C(C)(C)C)cc3[nH]2)C1 (stereo not given in full) | > 60.5 µM | > 100 µM | > 100 µM | > 100 µM | > 100 µM | > 100 µM | > 100 µM | > 100 µM | 31.4 µM | > 100 µM | > 76.5 µM | > 100 µM | 94.8 µM | > 100 µM | 21.2 µM | > 100 µM | > 58.7 µM | > 100 µM | – | –
O=C1c2ccccc2C(=O)c2sc(Nc3ccc(Cl)c(Cl)c3)nc21 | – | – | – | 29.3 µM | – | 5.06 µM | – | 21.3 µM | – | 28 µM | – | 53.2 µM | – | 42.5 µM | – | 12.4 µM | – | 8.63 µM | 29.5 µM | –
CCCCCc1c(C)[nH]c(/C=c2\[nH]/c(=C3/C=c4ccccc4=N3)cc2OC)c1C | 0.08 µM | 2.14 µM | 0.0452 µM | 5.88 µM | 0.0337 µM | 1.31 µM | 0.0767 µM | 0.438 µM | 0.0236 µM | 0.203 µM | 0.0846 µM | 0.883 µM | – | – | 0.086 µM | 0.755 µM | 0.394 µM | 1.73 µM | – | –
CCOC(=O)C1(Cc2ccc3ccccc3c2)CCCCCN1 (stereo not given) | – | – | – | 57.3 µM | – | 41.4 µM | – | > 100 µM | – | 55.4 µM | – | – | – | 26.9 µM | – | 83.2 µM | – | – | > 100 µM | –
O=c1[nH]c2c(O)cccc2c2cc3c(c(O)c12)OCO3 | – | – | – | 56.1 µM | – | > 100 µM | – | 61.8 µM | – | 63.9 µM | – | – | – | 50.6 µM | – | – | – | 47.6 µM | 77.4 µM | –
O=C(NO)c1cnc(N2CCN(S(=O)(=O)c3ccc4ccccc4c3)CC2)nc1 | 0.803 µM | 53.4 µM | 0.11 µM | 0.32 µM | 0.069 µM | 15.6 µM | 0.104 µM | 5.49 µM | 0.0202 µM | 0.0857 µM | 0.101 µM | > 47.3 µM | 0.0344 µM | 2.11 µM | 0.0399 µM | 0.208 µM | 0.0249 µM | 0.188 µM | – | –
O=[N+]([O-])c1cc(/C=N/NS(=O)(=O)c2ccc(F)cc2)c(O)c([N+](=O)[O-])c1 | – | – | – | > 100 µM | – | 67.4 µM | – | > 100 µM | – | > 100 µM | – | – | – | 64.6 µM | – | 84.9 µM | – | > 100 µM | > 100 µM | –
N#CC(C#N)=Cc1ccc(-c2ccc(-c3nc4ccccc4o3)cc2)o1 | > 100 µM | > 100 µM | 47.1 µM | 96.4 µM | 20.2 µM | > 100 µM | 21.6 µM | 51.9 µM | – | – | – | – | 41.2 µM | > 100 µM | 96.2 µM | > 100 µM | > 100 µM | > 100 µM | > 100 µM | > 100 µM
CCN(CC)c1ccc2nc3c4ccccc4c(=NC(=O)c4ccccc4-c4c5ccc(N(CC)CC)cc5[o+]c5cc(N(CC)CC)ccc45)cc-3oc2c1 | 14 µM | 30.8 µM | 1.62 µM | 3.82 µM | 1.42 µM | 3.9 µM | 1.81 µM | 4.53 µM | 3.51 µM | 19.4 µM | – | – | 2.73 µM | > 32.2 µM | – | – | 1.46 µM | 3.4 µM | > 32.6 µM | 3.52 µM
CCOC(=O)CNC(=O)C(CSC(=O)N(C)O)NC(=O)CCC(N)C(=O)O (stereo not given) | – | – | – | – | > 2000 µM | > 2000 µM | > 2000 µM | > 2000 µM | > 2000 µM | > 2000 µM | – | – | > 2000 µM | – | > 2000 µM | > 2000 µM | > 2000 µM | > 2000 µM | > 2000 µM | > 2000 µM
CC1(C)CC2CC(C)(CN2c2ncnc3ccc(Br)cc23)C1 (stereo not given) | – | – | 11.7 µM | 23.9 µM | 15.5 µM | 28.9 µM | 12.9 µM | 25.6 µM | 13.4 µM | 27.3 µM | 10.3 µM | 30.4 µM | – | – | 11 µM | 23.6 µM | – | – | – | –
NC(=O)CCC(NC(=O)C(F)(F)F)C(=O)O (stereo not given) | – | – | – | > 100 µM | – | > 100 µM | – | > 100 µM | – | > 100 µM | – | – | – | > 100 µM | – | > 100 µM | – | > 100 µM | > 100 µM | –
c1cnc2c(c1)Nc1cnncc1S2 | – | – | – | > 100 µM | – | > 100 µM | – | > 100 µM | – | > 100 µM | – | > 100 µM | – | > 100 µM | – | > 100 µM | – | > 100 µM | > 100 µM | –
CC(C)[O-].CC(C)[O-].[O-]c1cccc2cccnc12.[O-]c1cccc2cccnc12.[Ti+4] | – | – | 50.4 µM | > 100 µM | 4.79 µM and 8.05 µM | > 100 µM | > 100 µM | > 100 µM | 14.3 µM | 50.3 µM | – | – | – | – | 2.42 µM | 6.04 µM | – | > 100 µM | > 100 µM | > 100 µM
OC(c1ccccc1)c1c(-c2ccccc2)oc(-c2ccccc2)c1C(O)c1ccccc1 (stereo not given) | – | – | – | 33 µM | – | 36.8 µM | – | 27.9 µM | – | 26.5 µM | – | 52.7 µM | – | 23.1 µM | – | 21.5 µM | – | – | 19.6 µM | –
C=C=[CH][Sn]([c]1ccccc1)([c]1ccccc1)[c]1ccccc1 | – | – | 1.76 µM | 3.36 µM | 1.4 µM | 2.9 µM | 2.45 µM | 5.26 µM | 0.593 µM | 2.03 µM | 2.06 µM | 7.37 µM | 1.21 µM | 2.45 µM | 1.07 µM | 2.28 µM | 1.63 µM | 3.05 µM | 4.78 µM | 1.7 µM
C[N+]1=c2c3cccc4cccc(c(=O)n2CCC1)c43 | – | – | – | – | – | > 100 µM | – | 86.2 µM | – | 93.3 µM | – | – | – | 52.5 µM | – | 60.8 µM | – | 32.9 µM | 65 µM | –
COC(=O)C1=Cc2c(OC)cc(OC)c(OC)c2[C@H](c2cc(OC)c(OC)cc2OC)C1C(=O)OC (stereo not given in full) | – | – | – | > 100 µM | – | > 100 µM | – | > 100 µM | – | > 100 µM | – | – | – | > 100 µM | – | > 100 µM | – | – | > 100 µM | –
